Results reported in US20200392116A1, “SUBSTITUTED HETEROCYCLES AS c-MYC TARGETING AGENTS” (NORTHWESTERN UNIVERSITY, priority 2019, published 2020).

Experiment: Potency code of Table 2 (assay not stated)

| SMILES | Potency code |
| --- | --- |
| Oc1c(-c2cc(C(F)(F)F)n[nH]2)ccc(OCc2ccc(Cl)cc2)c1-c1cncc(C(F)(F)F)c1 [NUCC-0201037] | +++ (10-30 +++) |
| N#Cc1cccc(-c2c(OCc3ccc(Cl)cc3)ccc(-c3cc(C(F)(F)F)[nH]n3)c2O)c1 [NUCC-0198398] | ++++ (<10 ++++) |
| Cn1nc(C(F)(F)F)cc1-c1ccc(OCc2ccc(Cl)cc2)c(-c2ccc(C(F)(F)F)cc2)c1O [NUCC-0200726] | + (>40 +) |
| C#CCOc1ccc(COc2ccc(-c3cc(C(F)(F)F)n[nH]3)c(O)c2-c2cc(C(F)(F)F)cc(C(F)(F)F)c2)cc1 [NUCC-0201219] | ++++ (<10 ++++) |
| Cn1nc(-c2ccc(OCc3ccc(Cl)cc3)c(-c3ccc(F)c(C(F)(F)F)c3)c2O)cc1C(F)(F)F [NUCC-0200736] | + (>40 +) |
| Cn1nc(-c2ccc(OCc3ccc(Cl)cc3)c(-c3cc(C(F)(F)F)cc(C(F)(F)F)c3)c2O)cc1C(=O)O [NUCC-0200971] | ++++ (<10 ++++) |
| CN1CCN(c2ccc(-c3cc(C(F)(F)F)[nH]n3)c(O)c2)CC1 [NUCC-0200567] | + (>40 +) |
| CCc1ccc(Oc2c(-c3ccc(O)cc3O)nn(C)c2C(F)(F)F)cc1 [NUCC-0198411] | +++ (10-30 +++) |
| CCc1ccc(Oc2c[nH]nc2-c2ccc(OCCc3ccc(F)cc3)cc2O)cc1 [NUCC-0176258] | + (>40 +) |
| COc1ccc(-c2cc(C(F)(F)F)[nH]n2)c(O)c1-c1cc(C(F)(F)F)cc(C(F)(F)F)c1 [NUCC-0201220] | ++++ (<10 ++++) |
| COC(=O)c1cc(-c2ccc(OCc3ccc(Cl)cc3)c(-c3cc(C(F)(F)F)cc(C(F)(F)F)c3)c2O)nn1C [NUCC-0200970] | + (>40 +) |
| Oc1cc(OCc2ccc(Cl)cc2)ccc1-c1n[nH]cc1-c1cccnc1 [NUCC-0198320] | + (>40 +) |
| CN/N=C(/C)c1ccc(-c2c(OCc3ccc(Cl)cc3)ccc(-c3cc(C(F)(F)F)n(C)n3)c2O)cc1 [NUCC-0198397] | + (>40 +) |
| Cn1nc(C(F)(F)F)c(Br)c1-c1ccc(OCc2ccc(Cl)cc2)cc1C#N [NUCC-0200979] | + (>40 +) |
| Cn1nc(-c2ccc(OCCN)c(-c3ccc(Cl)c(C(F)(F)F)c3)c2O)cc1C(F)(F)F [NUCC-0201641] | + (>40 +) |
| Cn1nc(-c2ccc(OCc3ccc(Cl)cc3)c(-c3cncc(C(F)(F)F)c3)c2O)cc1C(F)(F)F [NUCC-0201631] | + (>40 +) |
| Oc1cc(NCc2ccc(Cl)cc2)ccc1-c1cc(C(F)(F)F)[nH]n1 [NUCC-0200493] | + (>40 +) |
| COc1ccc(CCOc2ccc(-c3cc(C(F)(F)F)n[nH]3)c(O)c2-c2cc(C(F)(F)F)cc(C(F)(F)F)c2)cc1 [NUCC-0201027] | +++ (10-30 +++) |
| COc1cccc(-c2c[nH]nc2-c2ccc(OCc3ccc(Cl)cc3)cc2O)c1 [NUCC-0198308] | + (>40 +) |
| Cc1[nH]nc(-c2ccc(OCCc3ccc(Cl)cc3)cc2O)c1Oc1ccccc1 [NUCC-0176252] | + (>40 +) |
| Oc1ccccc1C1=NNC(c2ccccc2)C1 (centres unmarked) [NUCC-0200685] | + (>40 +) |
| Cn1nc(C(F)(F)F)cc1-c1ccc(OCc2ccc(C#N)cc2)c(-c2ccc(Cl)c(C(F)(F)F)c2)c1O [NUCC-0201913] | + (>40 +) |
| Cn1nc(-c2ccc(NCc3ccc(Cl)cc3)cc2O)cc1C(F)(F)F [NUCC-0200494] | + (>40 +) |
| CCc1ccc(Oc2c(-c3ccccc3O)nn(C)c2C(F)(F)F)cc1 [NUCC-0200684] | + (>40 +) |

| SMILES | Potency code |
| --- | --- |
| N#Cc1ccc(-c2c(OCc3ccc(Cl)cc3)ccc(-c3cc(C(F)(F)F)[nH]n3)c2O)cc1 [NUCC-0198391] | ++++ (<10 ++++) |
| CCc1nn(C)c(-c2ccc(OCc3ccc(Cl)cc3)cc2O)c1-c1ccccc1 [NUCC-0198302] | + (>40 +) |
| CC(C)CCOc1ccc(-c2cc(C(F)(F)F)nn2C)c(O)c1-c1ccc(Cl)c(C(F)(F)F)c1 [NUCC-0201635] | + (>40 +) |
| CCc1ccc(Oc2c(-c3ccc(O)cc3N)nn(C)c2C(F)(F)F)cc1 [NUCC-0200682] | + (>40 +) |
| Oc1cc(OCc2ccc(Cl)cc2)ccc1-c1cc(C(F)(F)F)n(Cc2ccccc2)n1 [NUCC-0200499] | + (>40 +) |
| [N-]=[N+]=NCCOCCOCCOCCOCC(=O)Nc1ccc(COc2ccc(-c3cc(C(F)(F)F)n[nH]3)c(O)c2-c2cc(C(F)(F)F)cc(C(F)(F)F)c2)cc1 [NUCC-0201200] | + (>40 +) |
| Oc1cc(OCc2ccc(Cl)cc2)ccc1-c1n[nH]cc1Oc1ccccc1 [NUCC-0176247] | + (>40 +) |
| C#CCC(N=[N+]=[N-])C(=O)NCCCOc1ccc(-c2cc(C(F)(F)F)nn2C)c(O)c1-c1cncc(C(F)(F)F)c1 (centres unmarked) [NUCC-0201696] | ++ (30-40 ++) |
| CCc1c(-c2ccccc2)c(-c2ccc(OCc3ccc(Cl)cc3)cc2O)nn1C [NUCC-0198303] | + (>40 +) |
| Cn1nc(C(F)(F)F)cc1-c1ccc(OCc2ccc(Cl)cc2)cc1Cl [NUCC-0200744] | + (>40 +) |
| Nc1ccc(-c2cc(C(F)(F)F)[nH]n2)c(O)c1 [NUCC-0200497] | + (>40 +) |
| CCc1ccc(Oc2c(-c3ccc(OCc4ccc(Cl)cc4)cc3OC)nn(C)c2C(F)(F)F)cc1 [NUCC-0196352] | + (>40 +) |
| NC(=O)c1cccc(-c2c(OCc3ccc(Cl)cc3)ccc(-c3cc(C(F)(F)F)[nH]n3)c2O)c1 [NUCC-0198401] | + (>40 +) |
| C#CCC(N=[N+]=[N-])C(=O)NCCCOc1ccc(-c2cc(C(F)(F)F)n(C)n2)c(O)c1-c1cncc(C(F)(F)F)c1 (centres unmarked) [NUCC-0201694] | + (>40 +) |
| Cn1nc(-c2ccc(Nc3ccc(NC=O)cc3)cc2O)cc1C(F)(F)F [NUCC-0200564] | + (>40 +) |
| CCCCCCOc1ccc(-c2cc(C(F)(F)F)nn2C)c(O)c1-c1cncc(C(F)(F)F)c1 [NUCC-0201205] | ++++ (<10 ++++) |
| CCc1ccc(Oc2c(-c3ccc(OCc4ccc(Cl)cc4)cc3O)nn(C)c2CC)cc1 [NUCC-0196294] | + (>40 +) |
| Cc1[nH]nc(-c2ccc(OCc3ccc(Cl)cc3)cc2O)c1Oc1ccccc1 [NUCC-0176253] | + (>40 +) |
| Cc1nn(C)c(-c2ccc(OCc3ccc(Cl)cc3)cc2O)c1-c1ccccc1 [NUCC-0198299] | + (>40 +) |
| Cn1nc(C(F)(F)F)cc1-c1ccc(OCc2ccc(Cl)cc2)c(-c2ccc(C#N)cc2)c1O [NUCC-0198392] | + (>40 +) |
| CCc1ccc(Oc2c(-c3ccc(Nc4ccc(Cl)cc4)cc3O)n[nH]c2C(F)(F)F)cc1 [NUCC-0200680] | + (>40 +) |
| CCCCOc1ccc(-c2cc(C(F)(F)F)n(C)n2)c(O)c1-c1cncc(C#N)c1 [NUCC-0201639] | + (>40 +) |
| CCc1ccc(Oc2c(-c3ccc(OCc4ccc(Cl)c(Cl)c4)cc3O)n[nH]c2C(F)(F)F)cc1 [NUCC-0196355] | +++ (10-30 +++) |
| COc1ccc(CCOc2ccc(-c3cc(C(F)(F)F)n(C)n3)c(O)c2-c2cc(C(F)(F)F)cc(C(F)(F)F)c2)cc1 [NUCC-0201029] | + (>40 +) |

| SMILES | Potency code |
| --- | --- |
| Oc1c(-c2cc(C(F)(F)F)n[nH]2)ccc(OCc2ccc(Cl)cc2)c1-c1cncc(F)c1 [NUCC-0201040] | +++ (10-30 +++) |
| CCc1ccc(Oc2c(-c3ccc(OCc4cccc(Cl)c4)cc3O)nn(C)c2C(F)(F)F)cc1 [NUCC-0196296] | + (>40 +) |
| Cc1cc(C)c(-c2c[nH]nc2-c2ccc(OCc3ccc(Cl)cc3)cc2O)c(C)c1 [NUCC-0198359] | ++ (30-40 ++) |
| Cc1ccc(C)c(Oc2cn(C)nc2-c2ccc(OCc3cccc(Cl)c3)cc2O)c1 [NUCC-0196287] | + (>40 +) |
| Cn1nc(C(F)(F)F)cc1-c1ccc(OCc2ccc(Cl)cc2)c(-c2cncc(C(F)(F)F)c2)c1O [NUCC-0201630] | + (>40 +) |
| Oc1cc(Nc2ccc(Cl)cc2)ccc1-c1cc(C(F)(F)F)[nH]n1 [NUCC-0200491] | ++++ (<10 ++++) |
| Cc1ccc(C)c(Oc2c[nH]nc2-c2ccc(OCc3ccc4ccccc4c3)cc2O)c1 [NUCC-0196290] | + (>40 +) |
| Cn1nc(-c2ccc(O)c(-c3cc(C(F)(F)F)cc(C(F)(F)F)c3)c2O)cc1C(F)(F)F [NUCC-0200724] | + (>40 +) |
| Cc1ccc(C)c(Oc2c[nH]nc2-c2ccc(OCc3ccc(Cl)cc3)cc2O)c1 [NUCC-0196284] | + (>40 +) |
| COc1cccc(-c2c(C(F)(F)F)nn(C)c2-c2ccc(OCc3ccc(Cl)cc3)cc2O)c1 [NUCC-0198310] | + (>40 +) |
| N#Cc1ccc(COc2ccc(-c3cc(C(F)(F)F)[nH]n3)c(O)c2-c2ccc(Cl)c(C(F)(F)F)c2)cc1 [NUCC-0201911] | + (>40 +) |
| Cn1cc(-c2ccc(OCc3ccc(Cl)cc3)cc2N)c(C(F)(F)F)n1 [NUCC-0200746] | + (>40 +) |
| Cn1nc(C(F)(F)F)cc1-c1cnc(O)cn1 [NUCC-0200689] | + (>40 +) |
| CCc1ccc(Oc2c(-c3ccc(OCc4ccc(OC)cc4)cc3O)n[nH]c2C(F)(F)F)cc1 [NUCC-0196359] | + (>40 +) |
| Oc1ccc(OCc2ccc(Cl)cc2)cc1-c1cc(C(F)(F)F)n[nH]1 [NUCC-0200573] | + (>40 +) |
| Cc1ccccc1-c1c[nH]nc1-c1ccc(OCc2ccc(Cl)cc2)cc1O [NUCC-0198355] | + (>40 +) |
| Cc1cc(C)c(-c2cn(C)nc2-c2ccc(OCc3ccc(Cl)cc3)cc2O)c(C)c1 [NUCC-0198360] | + (>40 +) |
| Oc1c(-c2cc(C(F)(F)F)[nH]n2)ccc(OCc2ccc(Cl)cc2)c1-c1ccc(Cl)c(C(F)(F)F)c1 [NUCC-0200732] | + (>40 +) |
| C#CCCC(=O)NCCCOc1ccc(-c2cc(C(F)(F)F)n[nH]2)c(O)c1-c1ccc(Cl)c(C(F)(F)F)c1 [NUCC-0201659] | + (>40 +) |
| Oc1c(-c2cc(C(F)(F)F)[nH]n2)ccc(OCc2ccc(Cl)cc2)c1Cc1ccccc1Cl [NUCC-0200490] | + (>40 +) |
| Cn1nc(-c2ccc(OCc3ccc(F)cc3)c(-c3cc(C(F)(F)F)cc(C(F)(F)F)c3)c2O)cc1C(F)(F)F [NUCC-0201035] | + (>40 +) |
| Cn1cc(-c2ccc(OCc3ccc(Cl)cc3)cc2C=O)c(C(F)(F)F)n1 [NUCC-0200815] | + (>40 +) |
| Oc1cc(Oc2ccc(Cl)cc2)ccc1-c1cc(C(F)(F)F)[nH]n1 [NUCC-0200679] | ++ (30-40 ++) |
